Assays:
[1] = in vitro; details: human, Caco-2, pH 7.4
[2] = system: Male Sprague-Dawley rats; test: Spontaneous locomotor activity in rats (sedative properties); assay type: in vivo, rat; details: 1 mg/kg i.p.
Method: A study was carried out in rats to determine whether the dihydrotetrabenazine isomers of the invention have sedative properties. The effects of the isomers on spontaneous locomotor activity in rats were compared with the effects produced by tetrabenazine and haloperidol using the methods set out below.
Male Sprague-Dawley rats, (Charles River Laboratories, Saint-Germain/L'Arbresle, France), weighing 200-250 g at the beginning of the study, were used for the studies. The rats were housed, 2 or 3 per cage, in Makrolon type III cages, in a room set up with the following environmental conditions: temperature: 20±2° C., humidity: minimum 45%, air changes: >12 per hour, light/dark cycle of 12 h/12 h [on at 7:00 a.m.]. The rats were allowed to acclimatize to their conditions for at least five days before commencement of the study. The rats received food (Dietex, Vigny, France, ref. 811002) and water (tap water in water bottle) ad libitum.
Solutions of each test compound in corn oil were freshly prepared on the day of the experiment. Haloperidol was prepared in hydroxyethylcellulose, 0.5% in deionized water. Either the vehicle or the test compounds were administered as a single dose (0.3, 1, 3 and 10 mg/kg, 2 mL/kg i.p.). The reference compound haloperidol (1 mg/kg) was administered i.p. (2 mL/kg).
The animals were placed in plexiglass cages under a video camera in a room with low light intensity (maximum 50 lux). At forty five minutes and 3 hours after administration, locomotor activity was determined during 20 minute periods using a video image analyzer (Videotrack, View Point, France). Locomotor activity was recorded in the reference group (haloperidol) at 1 hour after administration. The number and duration of ambulatory movements and duration of inactivity was measured. At the end of the locomotor activity measurement (45 minutes and 3 hours), palpebral closure and arousal were be scored as follows in the plexiglass cage:
The number of occurrences and duration (in seconds) of ambulatory (large) movements and the duration of periods of inactivity (seconds) was determined during two 20 minute periods (45 minutes and 3 hours after administration) using a video image analyzer (Videotrack, ViewPoint, Lyon, France). Image tracking was performed using a video camera placed above the plexiglass cage, recording overall locomotor activity. Images recorded with the video camera were digitalized and displacement of the centre of gravity of the digital image spots was tracked and analyzed using the following method: the speed of displacement of the centre of gravity of the spot was measured and two threshold values were set to define the type of movement: threshold 1 (high speed) and threshold 2 (low speed). When the animal moved and the speed of displacement of the centre of gravity of the spot was above threshold 1, the movement was considered as an ambulatory movement.
The results were expressed as the means±SEMs of the 12 individual values. Statistical analyses were carried out using ANOVA (one way) and Dunnett's t-test and with the non parametric test of Kruskal-Wallis followed by a Mann & Whitney U-test for the sedation cotation. A p value of p<0.05 was taken as indicating significance.

[3] = biological target: T1, Adrenergic α2A Receptor (Homo sapiens, UniProt P08913); test: Adrenergic α2A receptor radioligand binding; details: 10 μM; 1 nM [3H] MK-912
T1 construct: expressed in transfected cells; host or cells: insect Sf9 cells
T1 sequence (P08913 1-465): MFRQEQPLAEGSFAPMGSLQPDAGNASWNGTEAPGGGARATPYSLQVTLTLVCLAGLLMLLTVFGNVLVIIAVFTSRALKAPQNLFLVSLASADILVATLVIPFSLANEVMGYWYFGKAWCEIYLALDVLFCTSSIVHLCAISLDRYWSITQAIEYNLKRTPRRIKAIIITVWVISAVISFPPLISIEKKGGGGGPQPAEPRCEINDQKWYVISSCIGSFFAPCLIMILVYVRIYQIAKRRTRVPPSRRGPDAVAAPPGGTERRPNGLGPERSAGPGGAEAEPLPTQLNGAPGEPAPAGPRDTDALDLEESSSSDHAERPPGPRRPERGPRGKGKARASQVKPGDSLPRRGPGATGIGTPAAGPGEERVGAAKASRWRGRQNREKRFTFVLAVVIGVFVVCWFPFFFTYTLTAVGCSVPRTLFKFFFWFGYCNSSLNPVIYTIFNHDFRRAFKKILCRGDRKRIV
Method: (§1) (a) Adrenergic α2A Receptor: • Reference: S. Uhlen et al. J. Pharmacol. Exp. Ther., 271:1558-1565 (1994) • Source: Human recombinant insect Sf9 cells • Ligand: 1 nM [^3H] […] J. Pharmacol., 99:803-809, (1990) • Source: Wistar rat cerebral cortex • Ligand: 2 nM [3H]

[4] = biological target: T2, Adrenergic α2B Receptor (Homo sapiens, UniProt P18089); test: Adrenergic α2B receptor radioligand binding; details: 10 μM; 2.5 nM [3H] Rauwolscine
T2 construct: expressed in transfected cells; host or cells: CHO-K1 cells
T2 sequence (P18089 1-450): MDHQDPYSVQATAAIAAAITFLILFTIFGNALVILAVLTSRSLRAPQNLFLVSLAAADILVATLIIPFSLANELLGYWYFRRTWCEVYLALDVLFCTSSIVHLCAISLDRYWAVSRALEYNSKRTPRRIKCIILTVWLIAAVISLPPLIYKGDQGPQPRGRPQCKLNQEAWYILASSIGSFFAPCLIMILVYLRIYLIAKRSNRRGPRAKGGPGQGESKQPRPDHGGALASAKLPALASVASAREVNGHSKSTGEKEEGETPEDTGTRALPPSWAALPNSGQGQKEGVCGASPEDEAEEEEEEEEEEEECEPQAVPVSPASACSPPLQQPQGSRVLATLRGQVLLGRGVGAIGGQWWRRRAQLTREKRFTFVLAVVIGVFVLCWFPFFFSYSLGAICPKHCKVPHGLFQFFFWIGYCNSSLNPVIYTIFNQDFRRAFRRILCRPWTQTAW
Method: as §1

[5] = biological target: T3, Dopamine D1 Receptor (Homo sapiens, UniProt P21728); test: Dopamine D1 receptor radioligand binding; details: 10 μM; 1.4 nM [3H] SCH-23390
T3 construct: expressed in transfected cells; host or cells: CHO cells
Method: as §1

[6] = biological target: T4, Dopamine D2L Receptor (Homo sapiens, UniProt P14416); test: Dopamine D2L receptor radioligand binding; details: 10 μM; 0.16 nM [3H] Spiperone
T4 construct: expressed in transfected cells; host or cells: CHO cells
Method: as §1

[7] = biological target: T5, Dopamine D3 Receptor (Homo sapiens, UniProt P35462); test: Dopamine D3 receptor radioligand binding; details: 10 μM; 0.7 nM [3H] Spiperone
T5 construct: expressed in transfected cells; host or cells: CHO cells
Method: as §1

[8] = system: Imidazoline I2 (Central) Receptor; test: Imidazoline I2 (central) receptor radioligand binding; set-up: species or system Wistar rat; details: 10 μM; 2 nM [3H] Idazoxan
Method: as §1

[9] = biological target: T6, Sigma σ1 Receptor (Homo sapiens, UniProt Q99720); test: Sigma σ1 receptor radioligand binding; details: 10 μM; 8 nM [3H] Haloperidol
T6 construct: Source: Human jurkat cells; endogenous in cells; host or cells: Jurkat cells
Method: as §1

[10] = biological target: T7, Sigma σ2 Receptor (Rattus norvegicus, UniProt Q5U3Y7); test: Sigma σ2 receptor radioligand binding; set-up: species or system Wistar rat; details: 3 nM [3H] Ifenprodil
T7 construct: Source: Wistar rat brain; from tissue; host or cells: Wistar rat brain
T7 sequence (Q5U3Y7 1-176): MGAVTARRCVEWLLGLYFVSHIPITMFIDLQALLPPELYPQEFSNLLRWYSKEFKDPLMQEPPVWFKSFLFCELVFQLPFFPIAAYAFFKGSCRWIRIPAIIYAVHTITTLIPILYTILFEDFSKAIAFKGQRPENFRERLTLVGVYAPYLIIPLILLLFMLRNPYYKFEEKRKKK
Method: as §1

[11] = biological target: T8, Serotonin Transporter (SERT) (Homo sapiens, UniProt P31645); test: Serotonin transporter (SERT) radioligand binding; details: 10 μM; 0.15 nM [125I] RTI-55
T8 construct: expressed in transfected cells; host or cells: HEK-293 cells
Method: as §1

[12] = biological target: T9, Dopamine Transporter (DAT) (Homo sapiens, UniProt Q01959); test: Dopamine transporter (DAT) radioligand binding; details: 10 μM, 0.15 nM [125I] RTI-55
T9 construct: expressed in transfected cells; host or cells: CHO cells
Method: as §1

[13] = system: Caco-2 monolayer; details: for Recovery: human, Caco-2, 1 h, 50 μM, pH 7.4
From the text: The assay relies on the ability of Caco-2 cells to differentiate into enterocytes when cultured on a microporous filter for a period of approximately 21 days. During the culture period, the Caco-2 cells undergo spontaneous morphological and biochemical changes, which produce a polarized monolayer with a well-defined brush border on the apical surface, as well as tight cellular junctions. Therefore, these cells may be used as an in vitro model for the analysis of drug permeability.
Absorption across the Caco-2 monolayer can be measured in two directions: apical-to-basolateral or basolateral-to-apical, by adding the compound to the apical or the basolateral chamber, respectively. At various time-points, samples are collected from the receiver-chamber for analysis for the rate of absorption as measured by the apparent permeability coefficient (Papp) across the monolayer.
The Papp value reflects a combination of the test article permeability through both transcellular (through cell membranes) and the paracellular (across the tight junctions between the cells) pathways. The relative contribution of these pathways depends upon the pKa, partition coefficient (log D), molecular radius, and charge of the test article at a given pH. Papp values can then be used to rank-order compounds for their permeability through Caco-2 monolayers.
Absorption was determined at pH 7.4 across cell monolayers in the apical-to-basolateral direction. Caco-2 cells used to estimate Papp values were grown for 26 days on Transwell inserts in 12-well plates. Monolayer integrity was verified before and after the absorption assay by the methods of transepithelial electrical resistance (Ohm-cm^2) and Lucifer Yellow.
On the day of the assay, the reference standards were diluted in Hank's balanced salt solution (HBSS), pH 7.4 to a final concentration of 50 μM. […] Dihydrotetrabenazine isomer samples were prepared at a concentration of 50 mM in DMSO. Each stock solution was further diluted in HBSS buffer (pH 7.4) to a final working concentration of 50 μM
The Caco-2 cell suspensions were prepared as follows. […] Once the cell density and viability were determined, Caco-2 cells were diluted in culture medium to a final working concentration of 2.0×10^5 cells/ml. The Caco-2 culture medium contained Dulbecco's Modified Eagle Medium, 10% fetal bovine serum, 100 μM non-essential amino acids, 100 U/ml penicillin and 100 μg/ml streptomycin.
Costar polycarbonate membranes (0.4 μm pore size) were pre-equilibrated with Caco-2 culture medium for 1 hour in a 37° C. water-jacketed incubator with 5% CO2. The content of the apical chamber was removed and replaced with 500 μl of Caco-2 cell suspension (200 000 cells/ml). Cells were further maintained in culture for 26 days in a 37° C. water-jacketed incubator with 5% CO2.
Prior to the assay, all monolayers were washed twice with HBSS and their transepithelial electrical resistance (TEER) was measured with a Millicell-ERS meter. TEER values obtained in the absence of cells were subtracted as background signal. Only monolayer with TEER values over 150 Ohm-cm^2 were used for the absorption assay experiment.
All absorption experiments were conducted in triplicate at pH 7.4. The rate of absorption of each reference standard and dihydrotetrabenazine test article was assessed in the apical-to-basolateral direction. Aliquots (100 μl) of each working solution (reference standards and test articles at 50 μM) were set aside at the beginning of the assay for the determination of the initial concentration (Co).
Absorption experiments were initiated by replacing the content of the donor chamber with 500 μl of Hanks Balanced Salt Solution containing test articles or reference compounds. Cells were returned to the CO2 incubator for the absorption assay. Samples of 100 μl were collected from the receiver and donor chambers after 1 hour and were used to determine the percentage of recovery.

[14] = 45 minutes after administration

T4 sequence (P14416 whole entry): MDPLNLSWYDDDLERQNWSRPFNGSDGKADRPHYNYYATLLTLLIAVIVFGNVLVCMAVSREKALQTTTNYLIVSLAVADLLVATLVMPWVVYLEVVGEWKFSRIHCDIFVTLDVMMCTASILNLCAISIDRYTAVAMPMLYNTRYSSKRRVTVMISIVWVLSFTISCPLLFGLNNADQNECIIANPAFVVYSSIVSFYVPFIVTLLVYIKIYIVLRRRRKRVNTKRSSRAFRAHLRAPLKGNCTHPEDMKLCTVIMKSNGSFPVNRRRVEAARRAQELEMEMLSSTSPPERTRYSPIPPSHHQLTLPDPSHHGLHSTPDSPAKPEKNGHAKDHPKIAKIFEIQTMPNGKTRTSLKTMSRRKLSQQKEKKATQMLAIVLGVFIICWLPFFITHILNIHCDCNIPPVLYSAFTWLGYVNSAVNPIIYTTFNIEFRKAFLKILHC
T6 sequence (Q99720 whole entry): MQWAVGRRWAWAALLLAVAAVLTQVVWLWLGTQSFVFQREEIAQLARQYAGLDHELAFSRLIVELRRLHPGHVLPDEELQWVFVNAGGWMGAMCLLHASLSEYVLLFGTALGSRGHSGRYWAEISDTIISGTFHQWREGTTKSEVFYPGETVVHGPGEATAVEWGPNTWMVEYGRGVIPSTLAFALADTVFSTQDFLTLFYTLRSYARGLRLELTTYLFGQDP
T5 sequence (P35462 whole entry): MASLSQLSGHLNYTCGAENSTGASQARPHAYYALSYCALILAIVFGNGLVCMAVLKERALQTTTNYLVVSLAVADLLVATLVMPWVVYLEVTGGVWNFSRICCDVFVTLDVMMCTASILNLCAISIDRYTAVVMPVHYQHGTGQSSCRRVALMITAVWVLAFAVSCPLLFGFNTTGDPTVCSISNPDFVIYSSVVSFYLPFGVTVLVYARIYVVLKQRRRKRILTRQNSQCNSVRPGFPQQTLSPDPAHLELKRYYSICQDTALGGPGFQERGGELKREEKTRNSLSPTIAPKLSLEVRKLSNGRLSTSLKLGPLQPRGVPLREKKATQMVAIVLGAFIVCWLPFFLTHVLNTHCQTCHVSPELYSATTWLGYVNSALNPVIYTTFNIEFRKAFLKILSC
T9 sequence (Q01959 whole entry): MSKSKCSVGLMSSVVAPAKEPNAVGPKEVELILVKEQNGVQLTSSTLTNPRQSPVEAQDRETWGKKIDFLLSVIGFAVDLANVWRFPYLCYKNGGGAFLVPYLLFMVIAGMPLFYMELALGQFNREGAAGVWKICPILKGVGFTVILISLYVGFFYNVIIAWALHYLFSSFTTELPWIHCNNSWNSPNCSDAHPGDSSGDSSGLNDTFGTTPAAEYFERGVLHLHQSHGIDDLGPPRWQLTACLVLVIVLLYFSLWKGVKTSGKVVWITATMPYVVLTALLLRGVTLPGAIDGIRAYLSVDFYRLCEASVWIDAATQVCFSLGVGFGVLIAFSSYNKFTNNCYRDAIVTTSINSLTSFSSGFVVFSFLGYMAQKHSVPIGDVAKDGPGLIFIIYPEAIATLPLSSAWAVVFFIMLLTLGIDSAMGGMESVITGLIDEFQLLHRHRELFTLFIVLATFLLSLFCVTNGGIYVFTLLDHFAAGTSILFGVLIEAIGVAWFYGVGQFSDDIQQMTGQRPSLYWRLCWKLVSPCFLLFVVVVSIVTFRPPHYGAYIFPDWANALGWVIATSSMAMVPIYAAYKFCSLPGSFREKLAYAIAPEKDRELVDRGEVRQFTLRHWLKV
T8 sequence (P31645 whole entry): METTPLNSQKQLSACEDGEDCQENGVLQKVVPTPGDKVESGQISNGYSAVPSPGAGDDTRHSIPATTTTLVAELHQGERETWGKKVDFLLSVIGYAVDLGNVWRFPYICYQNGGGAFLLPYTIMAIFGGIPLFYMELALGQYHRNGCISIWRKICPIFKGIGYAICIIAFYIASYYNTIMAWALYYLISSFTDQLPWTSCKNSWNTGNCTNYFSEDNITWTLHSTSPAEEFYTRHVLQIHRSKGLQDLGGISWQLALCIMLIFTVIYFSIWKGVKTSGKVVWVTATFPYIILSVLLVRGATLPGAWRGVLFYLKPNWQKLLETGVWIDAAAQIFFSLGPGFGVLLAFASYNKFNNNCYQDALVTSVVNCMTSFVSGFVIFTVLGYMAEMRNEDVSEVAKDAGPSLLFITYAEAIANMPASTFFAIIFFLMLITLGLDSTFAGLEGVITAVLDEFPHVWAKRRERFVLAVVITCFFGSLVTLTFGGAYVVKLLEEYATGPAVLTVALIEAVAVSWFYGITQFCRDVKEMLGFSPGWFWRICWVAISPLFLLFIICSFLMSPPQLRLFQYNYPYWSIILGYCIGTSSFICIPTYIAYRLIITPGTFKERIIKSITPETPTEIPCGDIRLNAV
T3 sequence (P21728 whole entry): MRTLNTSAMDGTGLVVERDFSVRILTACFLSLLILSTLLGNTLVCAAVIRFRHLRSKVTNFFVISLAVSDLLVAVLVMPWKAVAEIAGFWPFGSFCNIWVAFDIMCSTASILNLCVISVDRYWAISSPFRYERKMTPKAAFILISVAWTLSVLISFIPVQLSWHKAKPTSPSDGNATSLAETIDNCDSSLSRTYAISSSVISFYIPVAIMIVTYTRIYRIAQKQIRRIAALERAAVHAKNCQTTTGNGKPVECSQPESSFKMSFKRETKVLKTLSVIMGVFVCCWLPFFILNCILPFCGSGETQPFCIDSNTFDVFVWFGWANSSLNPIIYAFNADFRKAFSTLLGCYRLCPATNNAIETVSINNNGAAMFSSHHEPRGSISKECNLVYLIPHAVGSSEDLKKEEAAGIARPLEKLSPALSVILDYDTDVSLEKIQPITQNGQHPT

| Compound | recovery at 1 h, 50 μM [1] [%] | Percentage Inhibition of Specific Binding, α2A Receptor [3] [%] | Percentage Inhibition of Specific Binding, α2B Receptor [4] [%] | Percentage Inhibition of Specific Binding, D1 Receptor [5] [%] | Percentage Inhibition of Specific Binding, D2L Receptor [6] [%] | Percentage Inhibition of Specific Binding, D3 Receptor [7] [%] | Percentage Inhibition of Specific Binding, I2 Receptor [8] [%] | Percentage Inhibition of Specific Binding, σ1 Receptor [9] [%] | Percentage Inhibition of Specific Binding, SERT [11] [%] | permeability in the Caco-2 model (in words) [13] | Recovery [13] [%] | Papp A→B at 1 h, 50 μM [1] [×10⁻⁶ cm/s] | also measured |
| --- | --- | --- | --- | --- | --- | --- | --- | --- | --- | --- | --- | --- | --- |
| C[C@]12CC[C@H]3[C@@H](CCC4=CC(=O)CC[C@@]43C)[C@@H]1CC[C@@H]2O [Testosterone] | 105 ± 10.6 |  |  |  |  |  |  |  |  |  |  |  |  |
| O=C(CCCN1CCC(O)(c2ccc(Cl)cc2)CC1)c1ccc(F)cc1 [Haloperidol, reference compound] |  |  |  |  |  |  |  |  |  |  |  |  | Inactivity Duration [2, 14]: 637.2 ± 60.1 s; Large movements Duration [2, 14]: 14.8 ± 8.5 s; Large movements Occurrence [2, 14]: 58 ± 33; Inactivity Duration ([2]; 3 hours after administration): 723.6 ± 50.2 s; Large movements Duration ([2]; 3 hours after administration): 2.2 ± 2.0 s; Large movements Occurrence ([2]; 3 hours after administration): 9 ± 8 |
| COc1cc2c(cc1OC)[C@H]1C[C@@H](O)[C@@H](CC(C)C)CN1CC2 (single isomer, unassigned) [Isomer D, 3,11b-cis-dihydrotetrabenazine] |  | 87 | 50 | 38 | 58 | 63 | 55 | 82 | 8 | high permeability | 106.5 ± 23.8 |  | Percentage Inhibition of Specific Binding, σ2 Receptor ([10]; 10 μM): 69%; Percentage Inhibition of Specific Binding, DAT [12]: 2% |
| O=C(O)c1ccccc1O [Salicylic Acid] | 91.5 ± 11.4 |  |  |  |  |  |  |  |  |  |  | 8.91 ± 8.14 |  |
| OC[C@@H](O)[C@@H](O)[C@H](O)[C@H](O)CO [Mannitol] | 97.1 ± 0.3 |  |  |  |  |  |  |  |  |  |  | 1.18 ± 0.14 |  |
| COc1cc2c(cc1OC)[C@H]1C[C@H](O)[C@@H](CC(C)C)CN1CC2 (single isomer, unassigned) [Isomer A, 3,11b-cis-dihydrotetrabenazine] |  | 86 | 44 | 78 | 87 | 69 | 74 | 48 | 19 | high permeability | 106.8 ± 7.9 |  | inhibition at 10 µM ([10]; read-out: Percentage Inhibition of Specific Binding, σ2 Receptor): 64%; inhibition at 10 µM ([12]; read-out: Percentage Inhibition of Specific Binding, DAT): 3% |
